Patent publication US20130059896A1, “5-(1H-PYRAZOL-5-YL)THIAZOLE-BASED COMPOUNDS FOR THE TREATMENT OF DISEASES AND DISORDERS OF THE EYE” (priority 2010, published 2013)

System: wild-type C57:129 F2 hybrid mice
Experiment: Dexamethasone-induced ocular hypertension model (IOP by TonoLab tonometer)
Type: in vivo, mouse
Procedure: Twenty eight day mouse Alzet mini-osmotic pumps (DURECT Corp., Cupertino, Calif.) were filled with a solution of water soluble dexamethasone (dex) in PBS (Sigma, St. Louis, Mo.) so that they would release roughly 0.1 mg of dex per day. Once the pumps were filled with the dex, the pumps were allowed to equilibrate in PBS at 37° C. for 60 hours. The equilibrated pumps were surgically placed subcutaneously on the backs of wild-type C57:129 F2 hybrid mice weighing between 25 and 35 grams. Surgical incisions were sutured with 5-0 braided silk (ROBOZ, Gaithersburg, Md.) and treated with antibiotic ointment throughout the entire duration of study. Surgical incisions were glued with TissueMend II (Webster Veterinary, Houston, Tex.). Analgesic (buprenorphine) was given through IP injection the day of surgery and 24 hours after surgery. Intraocular pressure (IOP) was measured on these mice using a TonoLab (Colonial Medical Supply Co., Franconia, N.H.) tonometer. Mice were mildly sedated with isoflurane and topically anesthetized with 0.5% proparacaine (Akorn, Buffalo Grove, Ill.) before IOP measurements were taken. Baseline IOP was measured 1 day prior to mini-pump implantation. After mini-pump implantation, IOP measurements were taken 2-3 times per week for 4 weeks. Pharmacology studies with potential ocular hypotensive compounds were performed between 21 and 28 days after implantation.

Compound: O=C(C[C@@H]1CCCN1)Nc1ncc(-c2cc(C(F)F)nn2-c2c(Cl)cccc2Cl)s1 [Compound 9, (S)—N-(5-(1-(2,6-dichlorophenyl)-3-(difluoromethyl)-1H-pyrazol-5-yl)thiazol-2-yl)-2-(pyrrolidin-2-yl)acetamide]
- Average changes in IOP measured from time of dosing (3 μg/eye, 0 hr): 0.00 (0.0)
- Average changes in IOP measured from time of dosing (3 μg/eye, 2 hr): −4.10 (2.6)
- Average changes in IOP measured from time of dosing (3 μg/eye, 4 hr): −3.81 (3.8)
- Average changes in IOP measured from time of dosing (3 μg/eye, 6 hr): −3.19 (3.2)
- Average changes in IOP measured from time of dosing (15 μg/eye, 0 hr): 0.00 (0.0)
- Average changes in IOP measured from time of dosing (15 μg/eye, 2 hr): −4.25 (2.7)
- Average changes in IOP measured from time of dosing (15 μg/eye, 4 hr): −4.88 (5.1)
- Average changes in IOP measured from time of dosing (15 μg/eye, 6 hr): −4.88 (4.2)
- Average changes in IOP measured from time of dosing (30 μg/eye, 0 hr): 0.00 (0.0)
- Average changes in IOP measured from time of dosing (30 μg/eye, 2 hr): −3.33 (4.2)
- Average changes in IOP measured from time of dosing (30 μg/eye, 4 hr): −2.86 (1.1)
- Average changes in IOP measured from time of dosing (30 μg/eye, 6 hr): −2.29 (2.2)
- Effect in the ocular hypertension model (FIG. 1) (dose response, FIG. 1): dose dependent effect
